Source: ChEMBL document CHEMBL1135305, “Enantiospecific, selective cyclooxygenase-2 inhibitors” (Bioorg Med Chem Lett, 2002)

Tests used:
[1] = target: T1, Prostaglandin G/H synthase 2 (Homo sapiens, UniProt P35354); experiment: Inhibitory concentration against human prostaglandin G/H synthase 2
T1 sequence (P35354 whole entry): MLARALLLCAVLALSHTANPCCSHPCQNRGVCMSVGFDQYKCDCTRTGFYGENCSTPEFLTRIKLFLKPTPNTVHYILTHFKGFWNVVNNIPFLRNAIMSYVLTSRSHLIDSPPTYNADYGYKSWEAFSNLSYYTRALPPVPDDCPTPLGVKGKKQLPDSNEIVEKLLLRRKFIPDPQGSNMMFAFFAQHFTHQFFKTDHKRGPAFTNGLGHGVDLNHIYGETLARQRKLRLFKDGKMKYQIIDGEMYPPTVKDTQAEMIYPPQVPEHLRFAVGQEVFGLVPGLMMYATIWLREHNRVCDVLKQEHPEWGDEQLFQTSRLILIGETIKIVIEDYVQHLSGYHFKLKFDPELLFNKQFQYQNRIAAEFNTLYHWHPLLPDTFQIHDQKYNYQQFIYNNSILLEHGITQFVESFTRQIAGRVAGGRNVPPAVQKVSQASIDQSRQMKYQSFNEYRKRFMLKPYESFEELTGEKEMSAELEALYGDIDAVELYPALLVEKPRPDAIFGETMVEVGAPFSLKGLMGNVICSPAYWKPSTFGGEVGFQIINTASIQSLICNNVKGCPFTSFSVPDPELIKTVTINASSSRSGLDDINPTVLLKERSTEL

[2] = target: T2, Prostaglandin G/H synthase 1 (Ovis aries, UniProt P05979)
T2 sequence (P05979 whole entry): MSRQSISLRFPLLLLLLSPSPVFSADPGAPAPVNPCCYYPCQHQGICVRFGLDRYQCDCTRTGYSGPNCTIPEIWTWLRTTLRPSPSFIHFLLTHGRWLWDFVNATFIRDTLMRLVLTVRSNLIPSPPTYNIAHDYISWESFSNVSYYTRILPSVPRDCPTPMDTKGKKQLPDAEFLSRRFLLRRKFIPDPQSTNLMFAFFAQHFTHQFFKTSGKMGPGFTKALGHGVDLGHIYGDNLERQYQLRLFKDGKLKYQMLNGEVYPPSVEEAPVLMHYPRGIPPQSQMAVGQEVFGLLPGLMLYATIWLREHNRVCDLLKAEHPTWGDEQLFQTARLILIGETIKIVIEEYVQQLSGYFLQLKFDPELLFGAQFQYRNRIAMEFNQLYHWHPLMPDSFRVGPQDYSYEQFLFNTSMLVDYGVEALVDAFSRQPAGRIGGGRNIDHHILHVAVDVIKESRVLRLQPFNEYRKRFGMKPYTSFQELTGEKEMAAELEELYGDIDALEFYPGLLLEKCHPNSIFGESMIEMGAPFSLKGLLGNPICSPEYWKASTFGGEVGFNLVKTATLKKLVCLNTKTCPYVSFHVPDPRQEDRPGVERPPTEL
Description: Inhibitory concentration against prostaglandin G/H synthase 1

[3] = target: Prostaglandin G/H synthase 2 (Mus musculus, UniProt Q05769, F343L); experiment: Inhibitory concentration against F357L mutant murine Prostaglandin G/H synthase 2
Sequence of Prostaglandin G/H synthase 2 (Mus musculus, UniProt Q05769, F343L) (Q05769 18-604 F343L limits assumed): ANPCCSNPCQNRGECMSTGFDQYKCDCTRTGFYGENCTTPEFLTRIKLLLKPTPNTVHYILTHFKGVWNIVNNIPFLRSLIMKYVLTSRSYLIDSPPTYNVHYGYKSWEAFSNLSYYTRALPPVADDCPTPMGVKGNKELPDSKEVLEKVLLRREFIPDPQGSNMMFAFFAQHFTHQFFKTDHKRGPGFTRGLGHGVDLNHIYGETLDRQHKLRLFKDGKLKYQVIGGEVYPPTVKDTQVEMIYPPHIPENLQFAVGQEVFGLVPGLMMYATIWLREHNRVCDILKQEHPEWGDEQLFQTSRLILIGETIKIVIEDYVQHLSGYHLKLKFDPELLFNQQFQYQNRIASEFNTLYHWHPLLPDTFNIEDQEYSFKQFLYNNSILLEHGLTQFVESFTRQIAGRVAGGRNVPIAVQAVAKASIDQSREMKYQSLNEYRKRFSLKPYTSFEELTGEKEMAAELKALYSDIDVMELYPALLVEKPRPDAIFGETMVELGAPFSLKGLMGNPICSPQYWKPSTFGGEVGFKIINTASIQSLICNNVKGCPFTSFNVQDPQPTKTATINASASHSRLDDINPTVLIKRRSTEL

[4] = target: Prostaglandin G/H synthase 2 (Mus musculus, UniProt Q05769, H122N); experiment: Inhibitory concentration against H122N mutant murine Prostaglandin G/H synthase 2
[5] = target: Prostaglandin G/H synthase 2 (Mus musculus, UniProt Q05769, I92L); experiment: Inhibitory concentration against I92L mutant murine Prostaglandin G/H synthase 2
[6] = target: Prostaglandin G/H synthase 2 (Mus musculus, UniProt Q05769, R106A); experiment: Inhibitory concentration against R120A mutant murine Prostaglandin G/H synthase 2
Sequence of Prostaglandin G/H synthase 2 (Mus musculus, UniProt Q05769, R106A) (Q05769 18-604 R106A limits assumed): as the sequence (Q05769 18-604 F343L limits assumed) above, with R89A, L326F counted along it

[7] = target: Prostaglandin G/H synthase 2 (Mus musculus, UniProt Q05769, R106Q); experiment: Inhibitory concentration against R120Q mutant murine Prostaglandin G/H synthase 2
Sequence of Prostaglandin G/H synthase 2 (Mus musculus, UniProt Q05769, R106Q) (Q05769 18-604 R106Q limits assumed): as the sequence (Q05769 18-604 F343L limits assumed) above, with R89Q, L326F counted along it

[8] = target: Prostaglandin G/H synthase 2 (Mus musculus, UniProt Q05769, S105V); experiment: Inhibitory concentration against S119V mutant murine Prostaglandin G/H synthase 2
Sequence of Prostaglandin G/H synthase 2 (Mus musculus, UniProt Q05769, S105V) (Q05769 18-604 S105V limits assumed): as the sequence (Q05769 18-604 F343L limits assumed) above, with S88V, L326F counted along it

[9] = target: Prostaglandin G/H synthase 2 (Mus musculus, UniProt Q05769, S516A); experiment: Inhibitory concentration against S530A mutant murine Prostaglandin G/H synthase 2
Sequence of Prostaglandin G/H synthase 2 (Mus musculus, UniProt Q05769, S516A) (Q05769 18-604 S516A limits assumed): as the sequence (Q05769 18-604 F343L limits assumed) above, with L326F, S499A counted along it

[10] = target: T3, Prostaglandin G/H synthase 2 (Mus musculus, UniProt Q05769); experiment: Inhibitory concentration against V5231, mutant murine Prostaglandin G/H synthase 2
[11] = target: T3, Prostaglandin G/H synthase 2; experiment: Inhibitory concentration against VRV, mutant murine Prostaglandin G/H synthase 2
[12] = target: Prostaglandin G/H synthase 2 (Mus musculus, UniProt Q05769, Y101L); experiment: Inhibitory concentration against Y115L mutant murine Prostaglandin G/H synthase 2
Sequence of Prostaglandin G/H synthase 2 (Mus musculus, UniProt Q05769, Y101L) (Q05769 18-604 Y101L limits assumed): as the sequence (Q05769 18-604 F343L limits assumed) above, with Y84L, L326F counted along it

[13] = target: Prostaglandin G/H synthase 2 (Mus musculus, UniProt Q05769, S105V/Y101L); experiment: Inhibitory concentration against Y115L/S119V mutant murine Prostaglandin G/H synthase 2
Sequence of Prostaglandin G/H synthase 2 (Mus musculus, UniProt Q05769, S105V/Y101L) (Q05769 18-604 Y101L/S105V limits assumed): as the sequence (Q05769 18-604 F343L limits assumed) above, with Y84L, S88V, L326F counted along it

[14] = target: T3, Prostaglandin G/H synthase 2; experiment: Inhibitory concentration against l503F mutant murine Prostaglandin G/H synthase 2
[15] = target: T4, Prostaglandin G/H synthase 2 (Mus musculus, UniProt Q05769); experiment: Inhibitory concentration against wild type murine Prostaglandin G/H synthase 2
T4 sequence (Q05769 whole entry): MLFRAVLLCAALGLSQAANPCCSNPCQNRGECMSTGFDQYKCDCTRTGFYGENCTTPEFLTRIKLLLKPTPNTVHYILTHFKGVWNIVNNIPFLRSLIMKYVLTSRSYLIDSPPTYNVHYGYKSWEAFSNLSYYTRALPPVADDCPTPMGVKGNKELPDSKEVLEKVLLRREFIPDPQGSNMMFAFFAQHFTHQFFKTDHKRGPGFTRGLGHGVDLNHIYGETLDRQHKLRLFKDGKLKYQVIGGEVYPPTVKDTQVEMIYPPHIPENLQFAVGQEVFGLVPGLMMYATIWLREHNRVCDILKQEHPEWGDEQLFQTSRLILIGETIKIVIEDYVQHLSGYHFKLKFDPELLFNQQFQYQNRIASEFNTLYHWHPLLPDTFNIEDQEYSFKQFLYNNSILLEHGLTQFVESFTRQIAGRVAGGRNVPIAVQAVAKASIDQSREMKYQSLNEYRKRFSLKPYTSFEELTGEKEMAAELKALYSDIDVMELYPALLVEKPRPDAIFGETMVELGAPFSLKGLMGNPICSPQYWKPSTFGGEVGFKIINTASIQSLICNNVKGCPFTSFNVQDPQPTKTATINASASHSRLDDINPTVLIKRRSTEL

[16] = target: T3, Prostaglandin G/H synthase 2; experiment: Inhibitory concentration against V891 mutant murine Prostaglandin G/H synthase 2
[17] = target: Prostaglandin G/H synthase 2 (Mus musculus, UniProt Q05769, E510L); experiment: Inhibitory concentration against E524L mutant murine Prostaglandin G/H synthase 2
Sequence of Prostaglandin G/H synthase 2 (Mus musculus, UniProt Q05769, E510L) (Q05769 18-604 E510L limits assumed): as the sequence (Q05769 18-604 F343L limits assumed) above, with L326F, E493L counted along it

[18] = target: Prostaglandin G/H synthase 2 (Mus musculus, UniProt Q05769, L489F); experiment: Inhibitory concentration against L503F mutant murine Prostaglandin G/H synthase 2
Sequence of Prostaglandin G/H synthase 2 (Mus musculus, UniProt Q05769, L489F) (Q05769 18-604 L489F limits assumed): as the sequence (Q05769 18-604 F343L limits assumed) above, with L326F, L472F counted along it

| SMILES | IC50 [1] [nM] | IC50 [2] [nM] | also measured |
| --- | --- | --- | --- |
| CC[C@@H](C)NC(=O)Cc1c(C)n(C(=O)c2ccc(Cl)cc2)c2ccc(OC)cc12 | 130 | 180 | – |
| COc1ccc2c(c1)c(CC(=O)N[C@H](CO)Cc1ccccc1)c(C)n2C(=O)c1ccc(Cl)cc1 | 85 | < 3900 | – |
| COc1ccc2c(c1)c(CC(=O)N[C@@H](CO)Cc1ccccc1)c(C)n2C(=O)c1ccc(Cl)cc1 | 220 | > 50000 | – |
| COc1ccc2c(c1)c(CC(=O)NC[C@H](O)c1ccccc1)c(C)n2C(=O)c1ccc(Cl)cc1 | 210 | > 63000 | – |
| COC[C@H](C)NC(=O)Cc1c(C)n(C(=O)c2ccc(Cl)cc2)c2ccc(OC)cc12 | 240 | > 60000 | – |
| COc1ccc2c(c1)c(CC(=O)NC[C@H](C)O)c(C)n2C(=O)c1ccc(Cl)cc1 | 320 | 32000 | – |
| CC[C@H](C)NC(=O)Cc1c(C)n(C(=O)c2ccc(Cl)cc2)c2ccc(OC)cc12 | 110 | 4700 | – |
| COc1ccc2c(c1)c(CC(=O)NCCCO)c(C)n2C(=O)c1ccc(Cl)cc1 | 220 | 64000 | – |
| COc1ccc2c(c1)c(CC(=O)N[C@@H](CO)c1ccccc1)c(C)n2C(=O)c1ccc(Cl)cc1 | 440 | 47000 | – |
| COc1ccc2c(c1)c(CC(=O)NC[C@@H](O)c1ccccc1)c(C)n2C(=O)c1ccc(Cl)cc1 | 47 | 56000 | – |
| COc1ccc2c(c1)c(CC(=O)N[C@H](CO)C(C)C)c(C)n2C(=O)c1ccc(Cl)cc1 | 370 | 400 | – |
| CC[C@@H](CO)NC(=O)Cc1c(C)n(C(=O)c2ccc(Cl)cc2)c2ccc(OC)cc12 | 280 | 350 | – |
| COc1ccc2c(c1)c(CC(=O)N[C@@H](CO)CCSC)c(C)n2C(=O)c1ccc(Cl)cc1 | 250 | 51000 | – |
| COc1ccc2c(c1)c(CC(=O)NCCCCO)c(C)n2C(=O)c1ccc(Cl)cc1 | 280 | 86000 | – |
| CC[C@H](CO)NC(=O)Cc1c(C)n(C(=O)c2ccc(Cl)cc2)c2ccc(OC)cc12 | 100 | 59000 | – |
| COc1ccc2c(c1)c(CC(=O)N[C@@H](C)CO)c(C)n2C(=O)c1ccc(Cl)cc1 | 270 | 590 | IC50 [3]: 250 nM; IC50 [4]: 300 nM; IC50 [5]: 200 nM; IC50 [6]: 60 nM; IC50 [7]: 75 nM; IC50 [8]: 200 nM; IC50 [9]: 150 nM; IC50 [10]: 220 nM; IC50 [11]: 110 nM; IC50 [12]: 390 nM; IC50 [13]: 210 nM; IC50 [14]: 160 nM; IC50 [15]: 170 nM; IC50 [16]: 85 nM; IC50 [17]: 220 nM |
| COC[C@@H](C)NC(=O)Cc1c(C)n(C(=O)c2ccc(Cl)cc2)c2ccc(OC)cc12 | 140 | 6800 | – |
| COc1ccc2c(c1)c(CC(=O)NCCCCCCO)c(C)n2C(=O)c1ccc(Cl)cc1 | 210 | > 63000 | – |
| COc1ccc2c(c1)c(CC(=O)N[C@H](C)CO)c(C)n2C(=O)c1ccc(Cl)cc1 | 170 | 33000 | IC50 [3]: 250 nM; IC50 [4]: 690 nM; IC50 [5]: 200 nM; IC50 [18]: 300 nM; IC50 [6]: 50 nM; IC50 [7]: 90 nM; IC50 [8]: 240 nM; IC50 [9]: 570 nM; IC50 [10]: 690 nM; IC50 [11]: 340 nM; IC50 [12]: 325 nM; IC50 [13]: 290 nM; IC50 [15]: 540 nM; IC50 [16]: 250 nM; IC50 [17]: 560 nM |
| COc1ccc2c(c1)c(CC(=O)NC[C@@H](C)O)c(C)n2C(=O)c1ccc(Cl)cc1 | 330 | 52000 | – |
| COc1ccc2c(c1)c(CC(=O)NCCCCCO)c(C)n2C(=O)c1ccc(Cl)cc1 | 290 | > 83000 | – |
| CCC(C)[C@@H](CO)NC(=O)Cc1c(C)n(C(=O)c2ccc(Cl)cc2)c2ccc(OC)cc12 (stereo not given in full) | 110 | 480 | – |
| COc1ccc2c(c1)c(CC(=O)N[C@@H](CO)CC(C)C)c(C)n2C(=O)c1ccc(Cl)cc1 | 500 | > 63000 | – |
| COc1ccc2c(c1)c(CC(=O)NC(C)(C)CO)c(C)n2C(=O)c1ccc(Cl)cc1 | 190 | 800 | – |
| COc1ccc2c(c1)c(CC(=O)N[C@@H](CO)C(C)C)c(C)n2C(=O)c1ccc(Cl)cc1 | 110 | > 63000 | – |
| COc1ccc2c(c1)c(CC(=O)N[C@H](CO)c1ccccc1)c(C)n2C(=O)c1ccc(Cl)cc1 | 85 | < 1300 | – |
| COc1ccc2c(c1)c(CC(=O)NN1CCC[C@H]1CO)c(C)n2C(=O)c1ccc(Cl)cc1 | 1800 | > 80000 | – |
| COc1ccc2c(c1)c(CC(=O)N[C@H](CO)CC(C)C)c(C)n2C(=O)c1ccc(Cl)cc1 | 170 | < 3900 | – |
| COc1ccc2c(c1)c(CC(=O)N[C@H](CO)CCSC)c(C)n2C(=O)c1ccc(Cl)cc1 | 1000 | 2300 | – |
| COc1ccc2c(c1)c(CC(=O)NN1CCC[C@@H]1CO)c(C)n2C(=O)c1ccc(Cl)cc1 | 1700 | > 80000 | – |
